Laboratory results as given in the supplement of paper PMC10307832.

How the values were obtained:
Assay in all cases: relative viability (nuclei count vs DMSO), 5 days (fraction); higher = more cells survive
EHT 1864 + Olaparib = compound: C1COCCN1CC2=CC(=O)C(=CO2)OCCCCCSC3=C4C=CC(=CC4=NC=C3)C(F)(F)F [EHT 1864] + O=C(c1cc(Cc2n[nH]c(=O)c3ccccc23)ccc1F)N1CCN(C(=O)C2CC2)CC1 [Olaparib] (partner 8 µM)
How it was run: (§1)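 For relative viability, nuclei counts in treated wells were divided by those in vehicle wells. Lung cancer cell lines had been pin-tool dosed in 1536-well plates the day after seeding and cultured for 5 days, then fixed and stained in one step (final 0.05% Triton X-100, 1% formaldehyde, 1 ug/ml Hoechst) and imaged at 4×. Doses were one drug alone or a fixed anchor-drug dose plus five library-drug doses (not always all listed) in √10 steps, and values are duplicate-plate medians.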

EHT 1864 + AZD7762 = compound: C1COCCN1CC2=CC(=O)C(=CO2)OCCCCCSC3=C4C=CC(=CC4=NC=C3)C(F)(F)F [EHT 1864] + NC(=O)Nc1cc(-c2cccc(F)c2)sc1C(=O)N[C@H]1CCCNC1 [AZD7762] (partner 0.2 µM)
How it was run: as §1

EHT 1864 + Lapatinib = compound: C1COCCN1CC2=CC(=O)C(=CO2)OCCCCCSC3=C4C=CC(=CC4=NC=C3)C(F)(F)F [EHT 1864] + CS(=O)(=O)CCNCc1ccc(-c2ccc3ncnc(Nc4ccc(OCc5cccc(F)c5)c(Cl)c4)c3c2)o1 [Lapatinib] (partner 2 µM)
How it was run: as §1

EHT 1864 + Decitabine = compound: C1COCCN1CC2=CC(=O)C(=CO2)OCCCCCSC3=C4C=CC(=CC4=NC=C3)C(F)(F)F [EHT 1864] + Nc1ncn([C@H]2C[C@H](O)[C@@H](CO)O2)c(=O)n1 [Decitabine] (partner 2 µM)
How it was run: as §1

| Cell Line | relative viability (EHT 1864 + Olaparib; first compound 0.04 µM) | relative viability (EHT 1864 + Olaparib; first compound 0.1265 µM) | relative viability (EHT 1864 + Olaparib; first compound 0.4 µM) | relative viability (EHT 1864 + Olaparib; first compound 1.265 µM) | relative viability (EHT 1864 + Olaparib; first compound 4 µM) | relative viability (EHT 1864 + AZD7762; first compound 0.04 µM) | relative viability (EHT 1864 + AZD7762; first compound 0.1265 µM) | relative viability (EHT 1864 + AZD7762; first compound 0.4 µM) | relative viability (EHT 1864 + AZD7762; first compound 1.265 µM) | relative viability (EHT 1864 + AZD7762; first compound 4 µM) | relative viability (EHT 1864 + Lapatinib; first compound 0.04 µM) | relative viability (EHT 1864 + Lapatinib; first compound 0.1265 µM) | relative viability (EHT 1864 + Lapatinib; first compound 0.4 µM) | relative viability (EHT 1864 + Lapatinib; first compound 1.265 µM) | relative viability (EHT 1864 + Lapatinib; first compound 4 µM) | relative viability (EHT 1864 + Decitabine; first compound 0.04 µM) | relative viability (EHT 1864 + Decitabine; first compound 0.1265 µM) | relative viability (EHT 1864 + Decitabine; first compound 0.4 µM) | relative viability (EHT 1864 + Decitabine; first compound 1.265 µM) | relative viability (EHT 1864 + Decitabine; first compound 4 µM) |
| --- | --- | --- | --- | --- | --- | --- | --- | --- | --- | --- | --- | --- | --- | --- | --- | --- | --- | --- | --- | --- |
| 201T | 0.821 | 0.794 | 0.856 | 0.73 | 0.81 | 0.578 | 0.575 | 0.61 | 0.594 | 0.652 | 1.07 | 1 | 1.07 | 1.01 | 1.01 | 0.86 | 0.874 | 0.863 | 0.8 | 0.778 |
| A-427 | 0.768 | 0.734 | 0.778 | 0.678 | 0.713 | 0.835 | 0.775 | 0.738 | 0.762 | 0.791 | 1.09 | 1.06 | 1 | 1.09 | 1.07 | 0.566 | 0.572 | 0.548 | 0.564 | 0.59 |
| ABC-1 | 1.24 | 0.695 | 0.861 | 0.629 | 0.762 | 0.977 | 0.805 | 0.623 | 0.843 | 1.52 | 1.06 | 1.15 | 0.949 | 0.729 | 1.15 | 1.35 | 0.91 | 1.15 | 0.881 | 0.901 |
| BEN | 1.06 | 0.982 | 0.836 | 0.914 | 1 | 0.681 | 0.632 | 0.86 | 0.665 | 0.802 | 0.811 | 0.638 | 0.671 | 0.556 | 0.666 | 0.775 | 0.727 | 0.767 | 0.764 | 0.702 |
| CAL-12T | 0.702 | 0.642 | 0.721 | 0.706 | 0.611 | 0.689 | 0.543 | 0.624 | 0.517 | 0.516 | 0.63 | 0.562 | 0.677 | 0.675 | 0.799 |  |  |  |  |  |
| COR-L23 | 0.35 | 0.359 | 0.314 | 0.392 | 0.213 |  |  |  |  |  | 0.975 | 0.814 | 0.86 | 0.825 | 0.889 | 0.523 | 0.343 | 0.473 | 0.475 | 0.307 |
| COR-L 105 | 0.792 | 0.692 | 0.777 | 0.648 | 0.624 |  |  |  |  |  | 0.345 | 0.374 | 0.338 | 0.38 | 0.334 | 0.781 | 0.578 | 0.574 | 0.786 | 0.637 |
| Calu-6 | 0.615 | 0.563 | 0.594 | 0.507 | 0.502 |  |  |  |  |  | 1.03 | 0.933 | 1.03 | 1.04 | 0.857 |  |  |  |  |  |
| ChaGo-K-1 | 0.403 | 0.442 | 0.443 | 0.406 | 0.349 | 0.881 | 0.834 | 0.956 | 0.871 | 0.907 |  |  |  |  |  | 0.584 | 0.501 | 0.527 | 0.477 | 0.531 |
| EKVX | 0.741 | 0.823 | 0.806 | 0.83 | 0.788 | 0.685 | 0.661 | 0.484 | 0.764 | 0.684 | 0.238 | 0.216 | 0.205 | 0.207 | 0.21 | 0.372 | 0.333 | 0.317 | 0.329 | 0.381 |
| EMC-BAC-2 | 0.616 | 0.467 | 0.436 | 0.464 | 0.458 | 1.24 | 0.944 | 1.1 | 1.09 | 0.974 | 0.901 | 0.765 | 0.765 | 0.845 | 0.882 | 0.857 | 0.935 | 1 | 1.04 | 0.997 |
| EPLC-272H | 0.741 | 0.672 | 0.788 | 0.642 | 0.611 | 0.387 | 0.379 | 0.267 | 0.259 | 0.236 | 1.06 | 0.624 | 1.12 | 0.88 | 0.801 | 0.406 | 0.359 | 0.405 | 0.355 | 0.396 |
| H3255 | 0.56 | 0.537 | 0.573 | 0.55 | 0.569 | 0.797 | 0.795 | 0.995 | 0.867 | 1.04 | 0.235 | 0.239 | 0.275 | 0.298 | 0.317 | 0.585 | 0.548 |  | 0.573 | 0.677 |
| HARA | 0.872 |  | 0.967 | 0.876 | 0.761 | 0.626 |  | 0.329 | 0.262 | 0.328 | 0.718 | 0.702 | 0.688 | 0.706 | 0.758 | 0.532 |  | 0.563 | 0.564 | 0.425 |
| HCC-15 | 0.717 |  | 0.678 | 0.685 | 0.706 | 1.01 |  | 1.29 | 1.36 | 1.19 | 0.859 | 0.61 | 0.872 | 0.76 | 0.873 | 0.735 |  | 0.62 | 0.624 | 0.624 |
| HCC-44 | 1.04 | 0.896 | 1.01 | 0.92 | 1.02 | 1.01 | 0.896 | 0.934 | 1.03 | 1.01 | 1.04 | 0.822 | 0.955 | 1.05 | 0.965 | 0.951 | 0.797 | 0.914 | 0.981 | 0.987 |
| HCC-78 | 0.781 | 0.887 | 0.773 | 0.868 | 0.92 | 0.82 | 0.59 | 0.67 | 0.602 | 0.422 | 0.875 | 0.525 | 0.382 | 0.345 | 1.05 | 0.735 | 0.726 | 0.577 | 0.713 | 0.789 |
| HCC-366 | 0.391 | 0.325 | 0.34 | 0.347 | 0.304 | 0.262 | 0.232 | 0.248 | 0.28 | 0.243 | 1.02 |  | 0.929 | 1.04 | 0.992 | 0.338 | 0.324 | 0.331 | 0.333 | 0.326 |
